Results: PubChem BioAssay (NCI)
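Dose response: 5 concentrations. Exposure: 48 h. Format: 96-well plates. Endpoint: linear interpolation; highest concentration if not reached. The concentration for 50% growth inhibition is given as GI50. TGI: concentration producing complete growth inhibition.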

Experiments:
Experiment in all cases: inhibition of tumour cell growth, NCI panel, 48 h
IGROV1 ovarian = system: IGROV1 ovarian
HCT-116 colon = system: HCT-116 colon
SK-OV-3 ovarian = system: SK-OV-3 ovarian
RPMI-8226 leukemia = system: RPMI-8226 leukemia
PC-3 prostate = system: PC-3 prostate
SF-268 CNS = system: SF-268 CNS
NCI-H226 lung = system: NCI-H226 lung
SK-MEL-28 melanoma = system: SK-MEL-28 melanoma
SN12C renal = system: SN12C renal
HOP-62 NSCLC = system: HOP-62 NSCLC

Work on C=C1C(OC/C=C/COC2O[C@@H]3O[C@@]4(C)CC[C@H]5[C@H](C)CC[C@@H](C2=C)[C@@]35OO4)O[C@@H]2O[C@@]3(C)CC[C@H]4[C@H](C)CC[C@@H]1[C@@]24OO3 (stereo partly drawn) yielded a GI50 (IGROV1 ovarian) of 1.6 µM, a TGI (IGROV1 ovarian) of over 36.6 µM and a GI50 (HCT-116 colon) of 0.0907 µM. The TGI (HCT-116 colon) was 16.6 µM, the GI50 (SK-OV-3 ovarian) was 51.3 µM and the TGI (SK-OV-3 ovarian) was over 100 µM. For the same molecule, the TGI (RPMI-8226 leukemia) was 10.6 µM, the GI50 (PC-3 prostate) was under 0.0141 µM and the TGI (PC-3 prostate) was 32.5 µM. The GI50 (SF-268 CNS) was 5.87 µM, the TGI (SF-268 CNS) was 30.9 µM and the GI50 (NCI-H226 lung) was 4.32 µM. It also gave a TGI (NCI-H226 lung) of 33.5 µM, a GI50 (SK-MEL-28 melanoma) of 12.3 µM and a TGI (SK-MEL-28 melanoma) of 52.2 µM. For the same molecule, the GI50 (SN12C renal) was 1.33 µM, the TGI (SN12C renal) was 46.5 µM and the GI50 (HOP-62 NSCLC) was 15.8 µM. For the same molecule, the TGI (HOP-62 NSCLC) was 41.5 µM.

Molecule Cc1ccc2nc(-c3ccc(N)c4ccccc34)[nH]c2c1 has a GI50 (IGROV1 ovarian) of 0.424 µM, a TGI (IGROV1 ovarian) of over 42.4 µM and a GI50 (HCT-116 colon) of 0.04 µM. For the same molecule, the TGI (HCT-116 colon) was 4.57 µM, the GI50 (SK-OV-3 ovarian) was 0.283 µM and the TGI (SK-OV-3 ovarian) was over 46.7 µM. It also gave a GI50 (RPMI-8226 leukemia) of 0.0298 µM, a TGI (RPMI-8226 leukemia) of 0.934 µM and a GI50 (PC-3 prostate) of 0.0706 µM. The TGI (PC-3 prostate) was 22 µM, the TGI (SF-268 CNS) was over 31.6 µM and the GI50 (NCI-H226 lung) was 0.751 µM. For the same molecule, the TGI (NCI-H226 lung) was 32.1 µM, the GI50 (SK-MEL-28 melanoma) was 3.38 µM and the TGI (SK-MEL-28 melanoma) was over 54.1 µM. The GI50 (SN12C renal) was 0.0913 µM, the TGI (SN12C renal) was 19.4 µM and the GI50 (HOP-62 NSCLC) was 0.617 µM. The TGI (HOP-62 NSCLC) was 4.39 µM.

Molecule N#C/C(=C\c1c(-c2ccccc2)[nH]c2ccccc12)C(=O)c1ccccc1 has a GI50 (IGROV1 ovarian) of 2.53 µM, a TGI (IGROV1 ovarian) of 24.2 µM and a GI50 (HCT-116 colon) of 5.29 µM. The TGI (HCT-116 colon) was over 100 µM, the GI50 (SK-OV-3 ovarian) was 15.2 µM and the TGI (SK-OV-3 ovarian) was over 100 µM. The GI50 (RPMI-8226 leukemia) was 2.43 µM, the TGI (RPMI-8226 leukemia) was 7.98 µM and the GI50 (PC-3 prostate) was 3.46 µM. The TGI (PC-3 prostate) was over 100 µM, the GI50 (SF-268 CNS) was 5.73 µM and the TGI (SF-268 CNS) was 58.9 µM. The GI50 (NCI-H226 lung) was 6.83 µM, the TGI (NCI-H226 lung) was over 100 µM and the GI50 (SK-MEL-28 melanoma) was 12 µM. For the same molecule, the TGI (SK-MEL-28 melanoma) was over 100 µM, the GI50 (SN12C renal) was 5.66 µM and the TGI (SN12C renal) was over 100 µM. The GI50 (HOP-62 NSCLC) was 16.3 µM and the TGI (HOP-62 NSCLC) was over 100 µM.

Clc1cc(-c2ccccc2)nc2ccccc12 was tested, and the TGI (IGROV1 ovarian) was over 100 µM, the TGI (HCT-116 colon) was over 100 µM and the TGI (SK-OV-3 ovarian) was over 100 µM. It also gave a TGI (RPMI-8226 leukemia) of 59 µM, a TGI (PC-3 prostate) of 84.2 µM and a TGI (SF-268 CNS) of over 100 µM. It also gave a TGI (NCI-H226 lung) of 92.9 µM, a TGI (SK-MEL-28 melanoma) of over 100 µM and a TGI (SN12C renal) of over 100 µM. It also gave a TGI (HOP-62 NSCLC) of over 100 µM.

Clc1ccc(CNc2nccc(-c3cnn4ncccc34)n2)cc1 showed a GI50 (IGROV1 ovarian) of 6.72 µM, a TGI (IGROV1 ovarian) of over 23.3 µM and a GI50 (HCT-116 colon) of 7.92 µM. The TGI (HCT-116 colon) was over 25 µM, the GI50 (SK-OV-3 ovarian) was 11.8 µM and the TGI (SK-OV-3 ovarian) was over 25 µM. The GI50 (RPMI-8226 leukemia) was 5.8 µM, the TGI (RPMI-8226 leukemia) was 20 µM and the GI50 (PC-3 prostate) was 6.76 µM. The TGI (PC-3 prostate) was over 24 µM, the GI50 (SF-268 CNS) was 7.25 µM and the TGI (SF-268 CNS) was over 22.7 µM. The GI50 (NCI-H226 lung) was 7.79 µM, the TGI (NCI-H226 lung) was over 25 µM and the GI50 (SK-MEL-28 melanoma) was 5.64 µM. For the same molecule, the TGI (SK-MEL-28 melanoma) was 17.5 µM, the GI50 (SN12C renal) was 7.54 µM and the TGI (SN12C renal) was over 25 µM. The GI50 (HOP-62 NSCLC) was 7.59 µM and the TGI (HOP-62 NSCLC) was over 25 µM.
